# Results published in patent US20250312352A1, “GLP-1R MODULATING COMPOUNDS” (Gilead Sciences, Inc., priority 2021, published 2025).
# Molecular target: T1, GLP-1R (Homo sapiens, UniProt P43220)
# T1 construct: host or cells: CHO cells
# Test: GLP-1R activation cAMP assay (Assay 1 or Assay 2)
# Assay type: cell-based
# Details: cAMP increase in CHO cells stably expressing GLP-1R; compounds run on one of the two cAMP assays
# Method in brief: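 CHO cells stably expressing human GLP-1R were incubated 1 h in HBSS/20 mM HEPES/0.1% BSA, then exposed to 10-point agonist dilutions for 30 min at 37 °C. cAMP increase was measured with an HTRF Gs dynamic kit; EC50 from sigmoidal fit of response versus log concentration.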
# T1 sequence (P43220 24-463): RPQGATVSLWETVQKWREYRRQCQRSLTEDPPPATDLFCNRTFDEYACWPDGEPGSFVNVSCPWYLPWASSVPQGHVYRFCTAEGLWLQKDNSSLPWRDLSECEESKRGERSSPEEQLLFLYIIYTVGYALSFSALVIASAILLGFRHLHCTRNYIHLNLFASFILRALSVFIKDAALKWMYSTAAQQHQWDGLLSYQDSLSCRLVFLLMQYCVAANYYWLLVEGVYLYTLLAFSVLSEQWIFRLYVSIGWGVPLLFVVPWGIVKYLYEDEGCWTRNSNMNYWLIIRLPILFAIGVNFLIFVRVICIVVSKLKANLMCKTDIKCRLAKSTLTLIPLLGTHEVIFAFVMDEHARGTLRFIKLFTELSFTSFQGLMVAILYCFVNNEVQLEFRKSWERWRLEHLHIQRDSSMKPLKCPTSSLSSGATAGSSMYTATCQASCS
row,Compound,EC50 [nM]
1,"2-(4-(6-((5-chlorothiazol-2-yl)methoxy)pyridin-2-yl)-2,5-difluorobenzyl)-1-((1-(fluoromethyl)cyclopropyl)methyl)-1H-benzo[d]imidazole-6-carboxylic acid [Example 269]",0.748
2,"NC(=O)c1cc(F)c(COc2nc(-c3cc(F)c(Cc4nc5c(F)cc(C(=O)O)cc5n4C[C@@H]4CCO4)cc3F)ccc2F)cn1 [Example 208, (S)-2-(4-(6-((6-carbamoyl-4-fluoropyridin-3-yl)methoxy)-5-fluoropyridin-2-yl)-2,5-difluorobenzyl)-4-fluoro-1-(oxetan-2-ylmethyl)-1H-benzo[d]imidazole-6-carboxylic acid]",0.02
3,"Cc1cc(Cc2nc3c(F)cc(C(=O)O)cc3n2C[C@@H]2CCO2)c(F)cc1-c1cccc(OCc2cnc(-c3cnn(C4CC4)c3)cc2Cl)n1 [Example 163, (S)-2-(4-(6-((4-chloro-6-(1-cyclopropyl-1H-pyrazol-4-yl)pyridin-3-yl)methoxy)pyridin-2-yl)-2-fluoro-5-methylbenzyl)-4-fluoro-1-(oxetan-2-ylmethyl)-1H-benzo[d]imidazole-6-carboxylic acid]",0.7
4,"COCCn1c(Cc2ccc(-c3cccc(OCc4ccc(C#Cc5cnc(N6CC7CCC(C6)N7C6COC6)nc5)cc4F)n3)cc2F)nc2ccc(C(=O)O)cc21 [Example 150, 2-(2-fluoro-4-(6-((2-fluoro-4-((2-(8-(oxetan-3-yl)-3,8-diazabicyclo[3.2.1]octan-3-yl)pyrimidin-5-yl)ethynyl)benzyl)oxy)pyridin-2-yl)benzyl)-1-(2-methoxyethyl)-1H-benzo[d]imidazole-6-carboxylic acid]",10
5,"N#CC1(NC(=O)c2cc(Cl)c(COc3cccc(-c4cc(F)c(Cc5nc6c(F)cc(C(=O)O)cc6n5C[C@@H]5CCO5)cc4F)n3)cn2)CC1 [Example 185, (S)-2-(4-(6-((4-chloro-6-((1-cyanocyclopropyl)carbamoyl)pyridin-3-yl)methoxy)pyridin-2-yl)-2,5-difluorobenzyl)-4-fluoro-1-(oxetan-2-ylmethyl)-1H-benzo[d]imidazole-6-carboxylic acid]",0.08
6,"CC(C)(C#N)NC(=O)c1cc(Cl)c(COc2cccc(-c3cc(F)c(Cc4nc5ccc(C(=O)O)cc5n4C[C@@H]4CCO4)cc3F)n2)cn1 [Example 199, (S)-2-(4-(6-((4-chloro-6-((2-cyanopropan-2-yl)carbamoyl)pyridin-3-yl)methoxy)pyridin-2-yl)-2,5-difluorobenzyl)-1-(oxetan-2-ylmethyl)-1H-benzo[d]imidazole-6-carboxylic acid]",0.53
7,"NC(=O)c1cnc(COc2cccc(-c3cc(F)c(Cc4nc5ccc(C(=O)O)cc5n4C[C@@H]4CCO4)cc3F)n2)s1 [Example 3, (S)-2-(4-(6-((5-carbamoylthiazol-2-yl)methoxy)pyridin-2-yl)-2,5-difluorobenzyl)-1-(oxetan-2-ylmethyl)-1H-benzo[d]imidazole-6-carboxylic acid]",3.15
8,"N#Cc1cc(F)c(COc2cccc(-c3cc(F)c(Cc4nc5ccc(C(=O)O)cc5n4C[C@@H]4CCO4)cc3F)n2)s1 [Example 52, (S)-2-(4-(6-((5-cyano-3-fluorothiophen-2-yl)methoxy)pyridin-2-yl)-2,5-difluorobenzyl)-1-(oxetan-2-ylmethyl)-1H-benzo[d]imidazole-6-carboxylic acid]",0.13
9,"COCCn1c(Cc2cc(F)c(-c3cccc(OCc4cn(-c5ccccc5)cn4)n3)cc2F)nc2ccc(C(=O)O)cc21 [Example 122, 2-(2,5-difluoro-4-(6-((1-phenyl-1H-imidazol-4-yl)methoxy)pyridin-2-yl)benzyl)-1-(2-methoxyethyl)-1H-benzo[d]imidazole-6-carboxylic acid]",695
10,"O=C(O)c1ccc2nc(Cc3cc(F)c(-c4cccc(OCc5ccc(C#Cc6nccs6)cc5F)n4)cc3F)n(C[C@@H]3CCO3)c2c1 [Example 141, (S)-2-(2,5-difluoro-4-(6-((2-fluoro-4-(thiazol-2-ylethynyl)benzyl)oxy)pyridin-2-yl)benzyl)-1-(oxetan-2-ylmethyl)-1H-benzo[d]imidazole-6-carboxylic acid]",0.33
11,"CCOc1nnc(COc2nc(-c3cc(F)c(Cc4nc5ccc(C(=O)O)cc5n4[C@@H]4COCC4(C)C)c(F)c3F)ccc2F)s1 [Example 265, (S)-1-(4,4-dimethyltetrahydrofuran-3-yl)-2-(4-(6-((5-ethoxy-1,3,4-thiadiazol-2-yl)methoxy)-5-fluoropyridin-2-yl)-2,3,6-trifluorobenzyl)-1H-benzo[d]imidazole-6-carboxylic acid]",0.152

# Further compounds by falling EC50, results first:
row,EC50 [nM],Compound
1,1.99,"O=C(O)c1ccc2nc(Cc3cc(F)c(-c4cccc(OCc5cn6ccccc6n5)n4)cc3F)n(C[C@@H]3CCO3)c2c1 [Example 30, (S)-2-(2,5-difluoro-4-(6-(imidazo[1,2-a]pyridin-2-ylmethoxy)pyridin-2-yl)benzyl)-1-(oxetan-2-ylmethyl)-1H-benzo[d]imidazole-6-carboxylic acid]"
2,0.81,"O=C(O)c1ccc2nc(Cc3cc(F)c(-c4cccc(OCc5cc(C(F)(F)F)ns5)n4)cc3F)n(C[C@@H]3CCO3)c2c1 [Example 81, (S)-2-(2,5-difluoro-4-(6-((3-(trifluoromethyl)isothiazol-5-yl)methoxy)pyridin-2-yl)benzyl)-1-(oxetan-2-ylmethyl)-1H-benzo[d]imidazole-6-carboxylic acid]"
3,0.762,"COc1nnc(COc2nc(-c3cc(F)c(Cc4nc5ccc(C(=O)O)cc5n4CC4(CF)CC4)cc3F)ccc2F)s1 [Example 268, 2-(2,5-difluoro-4-(5-fluoro-6-((5-methoxy-1,3,4-thiadiazol-2-yl)methoxy)pyridin-2-yl)benzyl)-1-((1-(fluoromethyl)cyclopropyl)methyl)-1H-benzo[d]imidazole-6-carboxylic acid]"
4,0.683,"Cc1nnc(COc2cccc(-c3cc(F)c(Cc4nc5ccc(C(=O)O)cc5n4C[C@@H]4CCO4)cc3F)n2)s1 [Example 308, (S)-2-(2,5-difluoro-4-(6-((5-methyl-1,3,4-thiadiazol-2-yl)methoxy)pyridin-2-yl)benzyl)-1-(oxetan-2-ylmethyl)-1H-benzo[d]imidazole-6-carboxylic acid]"
5,0.481,"O=C(O)c1cc(F)c2nc(Cc3c(F)cc(-c4ccnc(OCc5nc(C(F)(F)F)cs5)n4)c(F)c3F)n(C[C@@H]3CCO3)c2c1 [Example 377, (S)-4-fluoro-1-(oxetan-2-ylmethyl)-2-(2,3,6-trifluoro-4-(2-((4-(trifluoromethyl)thiazol-2-yl)methoxy)pyrimidin-4-yl)benzyl)-1H-benzo[d]imidazole-6-carboxylic acid]"
6,0.48,O=C(O)c1ccc2nc(Cc3cc(F)c(-c4cccc(OCc5ccc(-c6cn([C@@H]7CCOC7)nn6)cc5F)n4)cc3F)n(C[C@@H]3CCO3)c2c1 [Example 213]
7,0.466,"COCc1nnc(COc2cccc(-c3cc(F)c(Cc4nc5ccc(C(=O)O)cc5n4C[C@@H]4CCO4)cc3F)n2)s1 [Example 298, (S)-2-(2,5-difluoro-4-(6-((5-(methoxymethyl)-1,3,4-thiadiazol-2-yl)methoxy)pyridin-2-yl)benzyl)-1-(oxetan-2-ylmethyl)-1H-benzo[d]imidazole-6-carboxylic acid]"
8,0.44,"O=C(O)c1ccc2nc(Cc3cc(F)c(-c4cccc(OCc5cc(C(F)(F)F)cs5)n4)cc3F)n(C[C@@H]3CCO3)c2c1 [Example 55, (S)-2-(2,5-difluoro-4-(6-((4-(trifluoromethyl)thiophen-2-yl)methoxy)pyridin-2-yl)benzyl)-1-(oxetan-2-ylmethyl)-1H-benzo[d]imidazole-6-carboxylic acid]"
9,0.335,"O=C(O)c1ccc2nc(Cc3cc(F)c(-c4cccc(OCc5ccc(C#Cc6cn[nH]c6)nc5)n4)cc3F)n(C[C@@H]3CCO3)c2c1 [Example 438, (S)-2-(4-(6-((6-((1H-pyrazol-4-yl)ethynyl)pyridin-3-yl)methoxy)pyridin-2-yl)-2,5-difluorobenzyl)-1-(oxetan-2-ylmethyl)-1H-benzo[d]imidazole-6-carboxylic acid]"
10,0.21,"O=C(O)c1ccc2nc(Cc3cc(F)c(-c4cccc(OCc5cc(F)c(Br)s5)n4)cc3F)n(C[C@@H]3CCO3)c2c1 [Example 51, (S)-2-(4-(6-((5-bromo-4-fluorothiophen-2-yl)methoxy)pyridin-2-yl)-2,5-difluorobenzyl)-1-(oxetan-2-ylmethyl)-1H-benzo[d]imidazole-6-carboxylic acid]"
11,0.14,"O=C(O)c1ccc2nc(Cc3cc(F)c(-c4cccc(OCc5ncc(-c6cncnc6)s5)n4)cc3F)n(C[C@@H]3CCO3)c2c1 [Example 105, (S)-2-(2,5-difluoro-4-(6-((5-(pyrimidin-5-yl)thiazol-2-yl)methoxy)pyridin-2-yl)benzyl)-1-(oxetan-2-ylmethyl)-1H-benzo[d]imidazole-6-carboxylic acid]"
12,0.14,"O=C(O)c1ccc2nc(Cc3cc(F)c(-c4cccc(OCc5ncc(-c6cnccn6)s5)n4)cc3F)n(C[C@@H]3CCO3)c2c1 [Example 106, (S)-2-(2,5-difluoro-4-(6-((5-(pyrazin-2-yl)thiazol-2-yl)methoxy)pyridin-2-yl)benzyl)-1-(oxetan-2-ylmethyl)-1H-benzo[d]imidazole-6-carboxylic acid]"
13,0.11,"Cn1nccc1CNC(=O)c1cc(Cl)c(COc2cccc(-c3cc(F)c(Cc4nc5ccc(C(=O)O)cc5n4C[C@@H]4CCO4)cc3F)n2)cn1 [Example 195, (S)-2-(4-(6-((4-chloro-6-(((1-methyl-1H-pyrazol-5-yl)methyl)carbamoyl)pyridin-3-yl)methoxy)pyridin-2-yl)-2,5-difluorobenzyl)-1-(oxetan-2-ylmethyl)-1H-benzo[d]imidazole-6-carboxylic acid]"
14,0.095,"O=C(O)c1cc(F)c2nc(Cc3cc(F)c(-c4ccc(F)c(OCc5ncc(-c6cnn(C(F)F)c6)s5)c4)cc3F)n(C[C@@H]3CCO3)c2c1 [Example 387, (S)-2-((3′-((5-(1-(difluoromethyl)-1H-pyrazol-4-yl)thiazol-2-yl)methoxy)-2,4′,5-trifluoro-[1,1′-biphenyl]-4-yl)methyl)-4-fluoro-1-(oxetan-2-ylmethyl)-1H-benzo[d]imidazole-6-carboxylic acid]"
